# According to patent US20070142348A1, “Microbicidal, prophylactic and therapeutic effect of ctc-96 on papilloma viruses” (REDOX PHARMACEUTICAL CORPORATION, AUDUBON […] AND […], priority 2003, published 2007):
# Where “and” joins values, the source holds several entries; their conditions need not be identical. Identical values can stand only once.
# Tests used:
# HPV-11 [1] = assay: Prophylactic (topical microbicide) activity: human grafts exposed to CTC-96 for 1 hour, washed, then exposed to HPV-11; xenograft in the SCID mouse; format: in vivo
# Protocol: Given the virucidal activity of CTC-96™, a series of experiments was performed to evaluate the prophylactic activity of the compound under conditions resembling that of the use of a topical microbicide. When using a topical microbicide the target organ is first exposed to the microbicide before exposure to the virus. Various concentrations of CTC-96™ were evaluated in a model of HPV-11-infected human xenograft in the SCID mouse. The human grafts were exposed to CTC-96™ for 1 hour prior to exposure to HPV-11 and engraftment. Because CTC-96™ is virucidal, it was washed off the foreskin fragments before exposure to the virus. The HPV-11-infected grafts were allowed to grow for 12 weeks. After 12 weeks, the animals were sacrificed and the grafts recovered, measured and processed. Graft size, expressed as the composite geometric mean diameter of the two grafts borne by the animal, was the primary endpoint. Histology of the grafts was examined for the presence of HPV. Grafts were also processed for detection of HPV-11 mRNAs transcripts by reverse transcriptase-polymerase chain reaction (RT-PCR).
# Grafts that are not infected by HPV proliferate poorly and tend to be eliminated by the mouse's host defenses as a foreign body. The residual fibrous tissue is a scar. In order to analyze the results properly, grafts that were truly negative (graft showing a healthy human epithelium) as well as those showing a foreign body reaction or fibrous tissue were counted as negative for HPV.
# Table 7 summarizes the immunocytochemistry results for the presence of HPV capsid antigen in the grafts. As the concentration of CTC-96™ increases, the number of grafts displaying either fibrous tissue or a foreign body reaction also increases. […] Again, a strong microbicidal effect of CTC-96™ is observed.
# [2] = system: Bovine Papillomavirus Type 1 (BPV-1); assay: Inhibition of BPV-1 transformation of C127 mouse epithelial cells: exposure of virus to drug prior to infection; format: cell-based; conditions: duplicate values
# Protocol: (§1) Experiments were performed to determine if CTC-96™ can inactivate the ability of bovine papillomavirus type 1 (BPV-1) to morphologically transform C127 mouse epithelial cells in culture. Cell-free stocks of BPV-1 were treated with CTC-96™ or placebo. In order to detect the transforming ability of BPV-1, sub-confluent cultures of C127 mouse cells are infected with a standardized inoculate of BPV-1. For the positive controls, stock virus was added to the culture medium present on the cells. The presence of morphologically transformed foci was counted after 2 weeks and then again at 3 weeks. Controls included non-infected cells (with or without drug) and untreated BPV-1.
# Bovine Papillomavirus Type 1 (BPV-1) was mixed with CTC-96™, incubated for 10 minutes at 37° C. and then added to the cells. It is clear that CTC-96™ can inhibit the appearance of bovine Papillomavirus type 1 (BPV-1) induced transformation of C127 mouse epithelial cells in culture (Table 9).
# [3] = system: Bovine Papillomavirus Type 1 (BPV-1); assay: Inhibition of BPV-1 transformation of C127 mouse epithelial cells: exposure of cells pretreated with virus to drug; format: cell-based; conditions: CTC-96 5 μg/ml added 5 hours after virus; counted on day 12; duplicate values
# Protocol: as §1
# To further evaluate the time course of interaction between CTC-96™ and Papillomavirus the following experiment was performed. Virus was put on C127 mouse epithelial cells in culture at time 0 and incubated for 5 hours. Medium was then removed and replaced with medium plus drug. Cells were then re-fed every 2 days and the experiments counted on day 12.
# HPV-11 [4] = assay: Therapeutic activity of CTC-96 ointment on human condylomas induced by HPV-11, HPV-11-infected external human xenograft SCID mouse model; format: in vivo, SCID mice; conditions: for Graft Size Growth, Means ± SD: thrice a week for 6 weeks on the graft
# Protocol: Two different dose levels of CTC-96™ (1%, 0.1%) in an ointment formulation and the vehicle alone were evaluated. SCID mice were grafted on each side of the dorsum with an HPV-11-infected foreskin fragment. The HPV-11-infected grafts were left to grow for 6 weeks before treatment was started and continued for 6 weeks. During the treatment phase, the drug was administered thrice a week, directly on the graft. Graft length, width, and height were measured every two weeks during the treatment phase. At the end of the study, the animals were sacrificed. The grafts were measured, recovered, and processed for histology. HPV infection in tissue sections is defined by the presence of two out of three of the following features: acanthosis, koilocytosis, or parakeratosis.
# The Graft Size Growth (GSG) index was our primary endpoint in this evaluation of CTC-96™. […] However, there is also a marked increase in the variance of the GSG in the high dose CTC-96™ group.
# In our analysis, to measure graft size growth we used a composite index that summarizes for each mouse the growth of the two grafts borne by the animal, each from a different foreskin donor. If instead we look at the growth of each individual graft, we can see that the means, medians, or variances of the graft size growth are more alike among the three treatment groups as shown in FIG. 1. The ANOVA fails to show a treatment effect on the growth of the individual grafts.
compound,measurement,setting,value
CC(/C=C(/C)[O-])=NCCN=C(C)/C=C(/C)[O-].Cc1ncc[nH]1.Cc1ncc[nH]1.[Br-].[Co+3] [CTC-96],Histology: grafts Negative for HPV (percent),HPV-11 [1]; CTC-96 0.05%,30%
same,Histology: grafts Positive for HPV (number),HPV-11 [1]; CTC-96 0.05%,16
same,Histology: grafts Positive for HPV (percent),HPV-11 [1]; CTC-96 0.05%,73%
same,Immunocytochemistry (HPV capsid antigen): grafts Negative (percent),HPV-11 [1]; CTC-96 0.05%,48%
same,Immunocytochemistry (HPV capsid antigen): grafts Positive (number),HPV-11 [1]; CTC-96 0.05%,12
same,Immunocytochemistry (HPV capsid antigen): grafts Positive (percent),HPV-11 [1]; CTC-96 0.05%,52%
same,RT-PCR (HPV-11 mRNA): grafts Negative (number),HPV-11 [1]; CTC-96 0.05%,9
same,RT-PCR (HPV-11 mRNA): grafts Negative (percent),HPV-11 [1]; CTC-96 0.05%,39%
same,RT-PCR (HPV-11 mRNA): grafts Positive (number),HPV-11 [1]; CTC-96 0.05%,14
same,RT-PCR (HPV-11 mRNA): grafts Positive (percent),HPV-11 [1]; CTC-96 0.05%,61%
same,Immunocytochemistry (HPV capsid antigen): grafts Negative (number),"HPV-11 [1]; CTC-96 0.05%, foreign body/fibrous counted as negative",11
same,Histology: grafts Negative for HPV (number),HPV-11 [1]; CTC-96 0.2%,14
same,Histology: grafts Negative for HPV (percent),HPV-11 [1]; CTC-96 0.2%,67%
same,Histology: grafts Positive for HPV (number),HPV-11 [1]; CTC-96 0.2%,7
same,Histology: grafts Positive for HPV (percent),HPV-11 [1]; CTC-96 0.2%,33%
same,Immunocytochemistry (HPV capsid antigen): grafts Negative (number),HPV-11 [1]; CTC-96 0.2%,15
same,Immunocytochemistry (HPV capsid antigen): grafts Negative (percent),HPV-11 [1]; CTC-96 0.2%,71%
same,Immunocytochemistry (HPV capsid antigen): grafts Positive (number),HPV-11 [1]; CTC-96 0.2%,6
same,Immunocytochemistry (HPV capsid antigen): grafts Positive (percent),HPV-11 [1]; CTC-96 0.2%,29%
same,RT-PCR (HPV-11 mRNA): grafts Negative (number),HPV-11 [1]; CTC-96 0.2%,17
same,RT-PCR (HPV-11 mRNA): grafts Negative (percent),HPV-11 [1]; CTC-96 0.2%,81%
same,RT-PCR (HPV-11 mRNA): grafts Positive (number),HPV-11 [1]; CTC-96 0.2%,4
same,RT-PCR (HPV-11 mRNA): grafts Positive (percent),HPV-11 [1]; CTC-96 0.2%,19%
same,Histology: grafts Negative for HPV (number),HPV-11 [1]; CTC-96 1%,22
same,Histology: grafts Negative for HPV (percent),HPV-11 [1]; CTC-96 1%,100%
same,Histology: grafts Positive for HPV (number),HPV-11 [1]; CTC-96 1%,0
same,Histology: grafts Positive for HPV (percent),HPV-11 [1]; CTC-96 1%,0%
same,Immunocytochemistry (HPV capsid antigen): grafts Negative (number),HPV-11 [1]; CTC-96 1%,22
same,Immunocytochemistry (HPV capsid antigen): grafts Negative (percent),HPV-11 [1]; CTC-96 1%,100%
same,Immunocytochemistry (HPV capsid antigen): grafts Positive (number),HPV-11 [1]; CTC-96 1%,0
same,Immunocytochemistry (HPV capsid antigen): grafts Positive (percent),HPV-11 [1]; CTC-96 1%,0%
same,RT-PCR (HPV-11 mRNA): grafts Negative (number),HPV-11 [1]; CTC-96 1%,14
same,RT-PCR (HPV-11 mRNA): grafts Negative (percent),HPV-11 [1]; CTC-96 1%,78%
same,RT-PCR (HPV-11 mRNA): grafts Positive (number),HPV-11 [1]; CTC-96 1%,4
same,RT-PCR (HPV-11 mRNA): grafts Positive (percent),HPV-11 [1]; CTC-96 1%,22%
same,"Graft size (composite geometric mean diameter) versus control, FIG. 2","HPV-11 [1]; all CTC-96 concentrations, 12 weeks",dramatic and highly statistically significant microbicidal effect
same,Histology: grafts Negative for HPV (number),"HPV-11 [1]; grafts pre-exposed to CTC-96 0.05%, foreign body/fibrous counted as negative",7
same,Number of Transformed Foci at 3 weeks,"[2]; CTC-96 0.1 mg/ml mixed with BPV-1, 10 minutes at 37° C.",68 and 80
same,Number of Transformed Foci at 3 weeks,"[2]; CTC-96 0.2 mg/ml mixed with BPV-1, 10 minutes at 37° C.",80 and 82
same,Number of Transformed Foci at 3 weeks,"[2]; CTC-96 0.5 mg/ml mixed with BPV-1, 10 minutes at 37° C.",25 and 40
same,"Number of Transformed Foci, Exp. 1",[3],3 and 2
same,"Number of Transformed Foci, Exp. 2",[3],3
same,"Graft Size Growth, Median",HPV-11 [4]; CTC-96 0.1% ointment,60.51%
same,"Graft Size Growth, Means ± SD",HPV-11 [4]; CTC-96 0.1% ointment,64.53 ± 41.92%
same,"Graft Size Growth, Median",HPV-11 [4]; CTC-96 1% ointment,52.03%
same,"Graft Size Growth, Means ± SD",HPV-11 [4]; CTC-96 1% ointment,91.39 ± 127.84%
same,Effect on the growth of HPV-11-induced papillomas,"HPV-11 [4]; mouse, in vivo",no detectable effect
